# Test results published in PMC2653224 (Journal of molecular biology, 2008).
# Target: cytochrome c (Fe^2+ cyt c) (Equus caballus, UniProt P00004)
# Test: equilibrium heme Soret absorbance titration with CO at […] °C
# Type: binding
# cytochrome c (Fe^2+ cyt c), sequence (P00004 2-105): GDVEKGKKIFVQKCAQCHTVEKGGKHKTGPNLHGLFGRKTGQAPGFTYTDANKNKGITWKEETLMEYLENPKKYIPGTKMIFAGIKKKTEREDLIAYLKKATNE
compound,measurement,value
[C-]#[O+] [CO],Kd,0.014 ± 0.008 µM
